The target of the assay is T1, recombinant human NaV1.8 stably transfected HEK cells (Homo sapiens, UniProt Q9Y5Y9).
T1 construct: expressed in transfected cells; host or cells: HEK cells, stably transfected
Put plainly: Compound profiling on NaV1.8, human NaV1.8 cell line, SyncroPatch384PE automated patch clamp assay (Example 102, first set of compounds, Table 16). Particulars: human NaV1.8 HEK cells, Table 16 (first set of compounds). Format: cell-based. In a few lines: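 Automated whole-cell patch clamp on HEK cells precultured at 30 °C one day before recording; CsF-based internal, 140 mM NaCl external. 10-point curve, 20–0.001 μM final, 0.1% DMSO, 5 min exposure. IC50 for resting (P1, −120 mV hold) and inactivated (P2, after 10 s at −40 mV) block, normalized to 250 μM tetracaine and DMSO.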

[1] abbreviates: inactivated state block (P2 measurement), read-out: P2IC50.
The mark [2] stands for this setting: resting state block (P1 measurement), read-out: P1IC50.

The structures appear in SMILES notation. Read-outs that look alike come from different tables or passages of the source.

T1 sequence (Q9Y5Y9 whole entry): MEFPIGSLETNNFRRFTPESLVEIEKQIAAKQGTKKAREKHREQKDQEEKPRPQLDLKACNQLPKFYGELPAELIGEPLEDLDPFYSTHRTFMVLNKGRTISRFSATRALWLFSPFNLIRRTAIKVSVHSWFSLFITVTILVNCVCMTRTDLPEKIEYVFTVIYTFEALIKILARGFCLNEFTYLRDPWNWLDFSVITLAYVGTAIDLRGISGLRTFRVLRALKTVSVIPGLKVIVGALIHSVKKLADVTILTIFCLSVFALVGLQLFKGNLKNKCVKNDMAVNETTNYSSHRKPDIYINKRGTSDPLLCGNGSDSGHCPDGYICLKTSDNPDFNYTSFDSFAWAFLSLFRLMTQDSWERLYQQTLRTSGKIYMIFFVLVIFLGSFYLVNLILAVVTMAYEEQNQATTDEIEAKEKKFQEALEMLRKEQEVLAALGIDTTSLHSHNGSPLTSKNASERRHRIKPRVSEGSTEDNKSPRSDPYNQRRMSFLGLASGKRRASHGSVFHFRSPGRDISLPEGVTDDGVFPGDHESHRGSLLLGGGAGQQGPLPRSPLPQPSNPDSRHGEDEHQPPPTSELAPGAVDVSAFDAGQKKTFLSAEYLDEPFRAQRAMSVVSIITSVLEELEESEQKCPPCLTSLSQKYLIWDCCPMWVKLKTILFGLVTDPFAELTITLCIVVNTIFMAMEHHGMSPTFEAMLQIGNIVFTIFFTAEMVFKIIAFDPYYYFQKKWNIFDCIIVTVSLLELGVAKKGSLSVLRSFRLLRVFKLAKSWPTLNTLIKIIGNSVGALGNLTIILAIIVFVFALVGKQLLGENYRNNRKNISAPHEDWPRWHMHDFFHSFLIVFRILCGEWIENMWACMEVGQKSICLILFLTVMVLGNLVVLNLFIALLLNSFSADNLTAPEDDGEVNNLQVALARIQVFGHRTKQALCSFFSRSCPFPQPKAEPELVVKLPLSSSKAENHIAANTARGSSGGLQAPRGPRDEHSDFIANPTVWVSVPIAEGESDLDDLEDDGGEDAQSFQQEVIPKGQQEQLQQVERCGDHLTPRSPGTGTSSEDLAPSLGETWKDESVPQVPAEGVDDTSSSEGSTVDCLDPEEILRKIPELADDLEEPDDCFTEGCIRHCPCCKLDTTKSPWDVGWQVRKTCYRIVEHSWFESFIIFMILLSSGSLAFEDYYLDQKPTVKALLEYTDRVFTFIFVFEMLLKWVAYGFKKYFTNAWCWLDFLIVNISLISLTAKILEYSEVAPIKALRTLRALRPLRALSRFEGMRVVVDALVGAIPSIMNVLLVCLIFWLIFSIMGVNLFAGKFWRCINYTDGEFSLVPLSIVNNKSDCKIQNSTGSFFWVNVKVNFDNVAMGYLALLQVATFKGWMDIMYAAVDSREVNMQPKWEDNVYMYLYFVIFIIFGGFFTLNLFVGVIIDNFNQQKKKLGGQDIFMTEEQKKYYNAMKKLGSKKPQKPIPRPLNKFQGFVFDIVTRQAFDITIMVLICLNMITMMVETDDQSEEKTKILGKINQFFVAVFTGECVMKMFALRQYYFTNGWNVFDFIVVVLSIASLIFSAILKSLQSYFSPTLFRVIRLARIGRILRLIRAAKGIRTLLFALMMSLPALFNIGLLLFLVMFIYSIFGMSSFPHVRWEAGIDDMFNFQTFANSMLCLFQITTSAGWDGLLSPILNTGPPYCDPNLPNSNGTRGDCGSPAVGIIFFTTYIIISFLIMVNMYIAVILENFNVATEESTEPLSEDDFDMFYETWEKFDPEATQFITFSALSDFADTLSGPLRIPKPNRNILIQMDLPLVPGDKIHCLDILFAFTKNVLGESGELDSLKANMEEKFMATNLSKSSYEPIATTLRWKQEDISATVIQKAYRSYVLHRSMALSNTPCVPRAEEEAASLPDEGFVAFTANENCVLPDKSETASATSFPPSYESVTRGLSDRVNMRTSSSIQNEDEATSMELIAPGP

Consider `CSc1cccc(NC(=O)c2c(Oc3ccc(C#N)cc3C)nnc(C(F)(F)F)c2C)c1` [Compound 14, 3-(4-Cyano-2-methylphenoxy)-5-methyl-N-[3-(methylsulfanyl)phenyl]-6-(trifluoromethyl)pyridazine-4-carboxamide], for which the IC50 was 200 to 500 nM under setting [1] and 200 to 500 nM under setting [2].
Regarding `COc1ccc(Oc2ncc(C(F)(F)F)cc2C(=O)Nc2cccc(S(C)(=N)=O)c2)cc1F` (stereo not shown) [Compound 1640], the IC50 fell in the range of 200 to 500 nM under setting [1] and 200 to 500 nM under setting [2].
`CS(=O)(=O)c1cccc(NC(=O)c2cc(C(F)(F)F)cnc2Oc2cncc3ccccc23)c1` [Compound 1581]: the IC50 reads like this: under setting [1], 200 to 500 nM; under setting [2], 200 to 500 nM.
As for `COc1cc(Oc2ncc(C(F)(F)F)cc2C(=O)Nc2cccc(S(C)(=N)=O)c2)ccc1C#N` (stereo not shown) [Compound 1645], the IC50 was 200 to 500 nM under setting [1] and 200 to 500 nM under setting [2].
`COc1nc(C)c(Oc2ncc(C(F)(F)F)cc2C(=O)Nc2cccc(S(C)(=N)=O)c2)cc1F` (stereo not shown) [Compound 1639]: the IC50 under setting [1] lay within 200 to 500 nM and the IC50 under setting [2] lay within 200 to 500 nM.
`Cc1c(C(F)(F)F)nnc(Oc2ccc(OC(F)F)c(F)c2F)c1C(=O)Nc1cccc(S(C)(=O)=O)c1` [Compound 1422]: the IC50 is, setting by setting: under setting [1], no more than 20 nM; under setting [2], no more than 20 nM.
Turning to `COc1c(Oc2nnc(C(F)(F)F)c(C)c2C(=O)Nc2cccc(S(C)(=N)=O)c2)ccc(Cl)c1F` (single isomer, unassigned) [Compound 1490, 3-(4-chloro-3-fluoro-2-methoxy-phenoxy)-5-methyl-N-[3-(methylsulfonimidoyl)phenyl]-6-(trifluoromethyl)pyridazine-4-carboxamide], the IC50 is no more than 20 nM under setting [1] and no more than 20 nM under setting [2].
For `Cc1cc(F)ccc1Oc1nnc(C(F)(F)F)c(N2CCCCC2)c1C(=O)Nc1cccc([S@@](C)(=N)=O)c1` [Compound 1732, (S)-3-(4-fluoro-2-methylphenoxy)-N-(3-(S-methylsulfonimidoyl)phenyl)-5-(piperidin-1-yl)-6-(trifluoromethyl)pyridazine-4-carboxamide], the IC50 under setting [1] lay in the range of 200 to 500 nM and the IC50 under setting [2] is 200 to 500 nM.
Take `Cc1c(Oc2nnc(C(F)(F)F)c(C)c2C(=O)Nc2cccc(S(C)(=N)=O)c2)ccc(Cl)c1F` (stereo not shown) [Compound 1486, 3-(4-chloro-3-fluoro-2-methyl-phenoxy)-5-methyl-N-[3-(methylsulfonimidoyl)phenyl]-6-(trifluoromethyl)pyridazine-4-carboxamide]: the IC50 runs as follows: under setting [1], no more than 20 nM; under setting [2], no more than 20 nM.
For `CS(=O)(=O)c1cccc(NC(=O)c2cc(C(F)(F)F)cnc2OCC2CC2(F)F)c1` (stereo not shown) [Compound 1659], the IC50 fell in the range of 40 to 200 nM under setting [1] and 40 to 200 nM under setting [2].
In the case of `CS(=O)(=O)c1cccc(NC(=O)c2cc(C(F)(F)F)cnc2OC2CCC(=O)NC2)c1` (stereo not shown) [Compound 1606], the IC50 by setting is: under setting [1], 200 to 500 nM; under setting [2], 200 to 500 nM.
Turning to `NC(=O)c1cccc(NC(=O)c2cc(C(F)(F)F)cnc2OC23CC(C(F)(F)F)(C2)C3)c1` [Compound 1634], the IC50 lay in the range of 200 to 500 nM under setting [1] and 200 to 500 nM under setting [2].
Consider `Cc1ccc(Oc2ncc(C(F)(F)F)cc2C(=O)Nc2cccc(S(C)(=N)=O)c2)c(OC(F)F)n1` (stereo not shown) [Compound 1690], for which the IC50 is, setting by setting: under setting [1], no more than 20 nM; under setting [2], no more than 20 nM.
As to `CS(=N)(=O)c1cccc(NC(=O)c2cc(C(F)(F)F)cnc2Oc2ccc(OC(F)F)nc2)c1` (stereo not shown) [Compound 1646], the IC50 lay within 40 to 200 nM under setting [1] and 40 to 200 nM under setting [2].
Turning to `Cc1c(C(F)(F)F)nnc(Oc2ccc(OC(F)(F)F)cc2F)c1C(=O)Nc1cccc(S(C)(=N)=O)c1` (single isomer, unassigned) [Compound 1496, 3-[2-fluoro-4-(trifluoromethoxy)phenoxy]-N-{3-[imino(methyl)oxo-λ^6-sulfanyl]phenyl}-5-methyl-6-(trifluoromethyl)pyridazine-4-carboxamide], the IC50 under setting [1] is no more than 20 nM and the IC50 under setting [2] is no more than 20 nM.
Take `CS(=O)(=O)c1cccc(NC(=O)c2cc(C(F)(F)F)cnc2Oc2cccc3c2OCCC3)c1` [Compound 1626]: the IC50 runs as follows: under setting [1], 200 to 500 nM; under setting [2], 200 to 500 nM.
For the compound `COc1ncc(C#N)cc1Oc1ncc(C(F)(F)F)cc1C(=O)Nc1cccc(S(C)(=N)=O)c1` (stereo not shown) [Compound 1623], the IC50 under setting [1] lay in the range of 200 to 500 nM and the IC50 under setting [2] fell in the range of 200 to 500 nM.
On to `Cc1cc(F)ccc1Oc1nnc(C(F)(F)F)c(C)c1C(=O)Nc1ccnc(C(N)=O)c1` [Compound 1408], for which the IC50 reads like this: under setting [1], 40 to 200 nM; under setting [2], 40 to 200 nM.
For `Cc1nn(C)c(C)c1Oc1ncc(C(F)(F)F)cc1C(=O)Nc1cccc(S(C)(=O)=O)c1` [Compound 1611], the IC50 by setting is: under setting [1], 200 to 500 nM; under setting [2], 200 to 500 nM.
As for `CC(C)Oc1ccc(Oc2ncc(C(F)(F)F)cc2C(=O)Nc2cccc(S(C)(=N)=O)c2)c(F)c1` (stereo not shown) [Compound 1706], the IC50 was 200 to 500 nM under setting [1] and 200 to 500 nM under setting [2].
For `CS(=N)(=O)c1cccc(NC(=O)c2cc(C(F)(F)F)cnc2Oc2cnc(C(F)(F)F)nc2)c1` (stereo not shown) [Compound 1696], the IC50 under setting [1] was in the range of 200 to 500 nM and the IC50 under setting [2] lay in the range of 200 to 500 nM.
`Cc1cc(C(F)(F)F)ccc1Oc1ncc(C(F)(F)F)cc1C(=O)Nc1cccc(S(C)(=O)=O)c1` [Compound 1595]: the IC50 under setting [1] is no more than 20 nM and the IC50 under setting [2] is 20 to 40 nM.
For `COc1cc(F)ccc1Oc1ncc(C(F)(F)F)cc1C(=O)Nc1cccc(S(C)(=O)=O)c1` [Compound 1575] the same measures were no more than 20 nM and no more than 20 nM.
Turning to `CS(=O)(=O)c1cccc(NC(=O)c2cc(C(F)(F)F)cnc2OCC(F)F)c1` [Compound 1663], the IC50 under setting [1] lay in the range of 200 to 500 nM and the IC50 under setting [2] was in the range of 200 to 500 nM.
Take `Cn1ccc2c(Oc3ncc(C(F)(F)F)cc3C(=O)Nc3cccc(S(C)(=O)=O)c3)cccc21` [Compound 1624]: the IC50 is, setting by setting: under setting [1], 200 to 500 nM; under setting [2], 200 to 500 nM.
As for `Cc1cc(F)ccc1Oc1ncc(C(F)(F)F)cc1C(=O)Nc1cccc(S(C)(=O)=O)c1` [Compound 1574, 2-(4-fluoro-2-methyl-phenoxy)-N-(3-methylsulfonylphenyl)-5-(trifluoromethyl)pyridine-3-carboxamide], the IC50 reads like this: under setting [1], no more than 20 nM; under setting [2], no more than 20 nM.
Regarding `Cc1ccc(Oc2nnc(C(F)(F)F)c(C)c2C(=O)Nc2cccc(S(C)(=N)=O)c2)c(C)n1` (single isomer, unassigned) [Compound 1484, 3-[(2,6-dimethylpyridin-3-yl)oxy]-N-{3-[imino(methyl)oxo-λ^6-sulfanyl]phenyl}-5-methyl-6-(trifluoromethyl)pyridazine-4-carboxamide], the IC50 lay in the range of 200 to 500 nM under setting [1] and 200 to 500 nM under setting [2].
As to `COc1cc(C#N)cc(Oc2ncc(C(F)(F)F)cc2C(=O)Nc2cccc(S(C)(=N)=O)c2)c1` (stereo not shown) [Compound 1592], the IC50 under setting [1] was 200 to 500 nM and the IC50 under setting [2] fell in the range of 200 to 500 nM.
In the case of `NC(=O)c1cccc(NC(=O)c2cc(C(F)(F)F)cnc2OC2CC(C(F)(F)F)C2)c1` (mixture of isomers) [Compound 1667], the IC50 by setting is: under setting [1], 200 to 500 nM; under setting [2], 200 to 500 nM.
In the case of `Cc1c(C(F)(F)F)nnc(Oc2ccc(Cl)cc2F)c1C(=O)Nc1cccc(S(C)(=N)=O)c1` (single isomer, unassigned) [Compound 1471, 3-(4-chloro-2-fluoro-phenoxy)-5-methyl-N-[3-(methylsulfonimidoyl)phenyl]-6-(trifluoromethyl)pyridazine-4-carboxamide], the IC50 reads like this: under setting [1], no more than 20 nM; under setting [2], no more than 20 nM.
For the compound `NC(=O)c1cccc(NC(=O)c2cc(C(F)(F)F)cnc2Oc2ccc(C(F)F)nc2)c1` [Compound 1675], the IC50 runs as follows: under setting [1], 200 to 500 nM; under setting [2], 200 to 500 nM.
On to `COc1cc(C#N)ccc1Oc1nnc(C(F)(F)F)c(C)c1C(=O)Nc1cncc(C#N)c1` [Compound 1540, 3-(4-cyano-2-methoxy-phenoxy)-N-(5-cyano-3-pyridyl)-5-methyl-6-(trifluoromethyl)pyridazine-4-carboxamide], for which the IC50 is, setting by setting: under setting [1], 40 to 200 nM; under setting [2], 40 to 200 nM.
Turning to `CN=S(C)(=O)c1cccc(NC(=O)c2cc(C(F)(F)F)cnc2Oc2ccc(F)cc2C)c1` (stereo not shown) [Compound 1717, N-[3-(N,S-dimethylsulfonimidoyl)phenyl]-2-(4-fluoro-2-methyl-phenoxy)-5-(trifluoromethyl)pyridine-3-carboxamide], the IC50 was no more than 20 nM under setting [1] and no more than 20 nM under setting [2].
For `COc1c(Oc2nnc(C(F)(F)F)c(C)c2C(=O)Nc2ccc[n+]([O-])c2)ccc(F)c1F` [Compound 1476, 3-(3,4-difluoro-2-methoxy-phenoxy)-5-methyl-N-(1-oxidopyridin-1-ium-3-yl)-6-(trifluoromethyl)pyridazine-4-carboxamide], the IC50 runs as follows: under setting [1], no more than 20 nM; under setting [2], no more than 20 nM.
As for `Cc1c(C(F)(F)F)nnc(OCC23CC(F)(C2)C3)c1C(=O)Nc1cccc(S(C)(=N)=O)c1` (stereo not shown) [Compound 1470, 3-[(3-fluoro-1-bicyclo[1.1.1]pentanyl)methoxy]-5-methyl-N-[3-(methylsulfonimidoyl)phenyl]-6-(trifluoromethyl)pyridazine-4-carboxamide], the IC50 by setting is: under setting [1], 200 to 500 nM; under setting [2], 200 to 500 nM.
Turning to `COc1cc(C#N)ccc1Oc1ncc(C(F)(F)F)cc1C(=O)Nc1ccc[n+]([O-])c1` [Compound 1702], the IC50 was in the range of 40 to 200 nM under setting [1] and 40 to 200 nM under setting [2].
On to `Cc1cc(C#N)ncc1Oc1ncc(C(F)(F)F)cc1C(=O)Nc1cccc(S(C)(=O)=O)c1` [Compound 1694], for which the IC50 lay in the range of 200 to 500 nM under setting [1] and 200 to 500 nM under setting [2].
`Cc1cc(F)ccc1Oc1ncc(C(F)(F)F)c(C)c1C(=O)Nc1cccc(S(C)(=N)=O)c1` (stereo not shown) [Compound 1557, 2-(4-fluoro-2-methylphenoxy)-4-methyl-N-(3-(S-methylsulfonimidoyl)phenyl)-5-(trifluoromethyl)nicotinamide]: the IC50 runs as follows: under setting [1], no more than 20 nM; under setting [2], no more than 20 nM.

The values above are taken from US20240336574A1 (LATIGO BIOTHERAPEUTICS, INC., priority 2021, published 2024).
